In patent publication US8394971B2, “Indole derivatives as selective androgen receptor modulators (SARMS)” (Janssen Pharmaceutica N.V., priority 2004, dated 2013):
“And” between values parts separate entries of the source, which are not always exact repeats. Equal entries are not always repeated.

Columns and labels:
[1] = tested on: testosterone-enhanced ventral prostate and seminal vesicle weights in castrated male Sprague Dawley rats; assay: Ventral Prostate and Seminal Vesicle Weight In Vivo Assay; set-up: species or system rat; conditions: immature castrated rats; once daily for five days, usually orally at 40 mg/kg, with testosterone propionate 2 mg/kg s.c.
How it was run: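 Immature (~50 g) castrated Sprague Dawley rats dosed once daily for five days with compound (usually oral, 40 mg/kg, cyclodextrin or methylcellulose vehicle) plus testosterone propionate 2 mg/kg s.c. Wet ventral prostate and seminal vesicle weights taken on day six; activity judged by prostate weight or body-weight-adjusted % inhibition.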

[2] = target: T1, androgen receptor (adenovirus AdEasy+rAR in COS-7 cells) (Rattus norvegicus, UniProt P15207); assay: COS-7 Whole-Cell Androgen Receptor Binding Assay, Adenovirus Transduction; conditions: COS binding; 3000 nM unless otherwise noted
T1 construct: expressed in transfected cells
T1 sequence (P15207 1-902): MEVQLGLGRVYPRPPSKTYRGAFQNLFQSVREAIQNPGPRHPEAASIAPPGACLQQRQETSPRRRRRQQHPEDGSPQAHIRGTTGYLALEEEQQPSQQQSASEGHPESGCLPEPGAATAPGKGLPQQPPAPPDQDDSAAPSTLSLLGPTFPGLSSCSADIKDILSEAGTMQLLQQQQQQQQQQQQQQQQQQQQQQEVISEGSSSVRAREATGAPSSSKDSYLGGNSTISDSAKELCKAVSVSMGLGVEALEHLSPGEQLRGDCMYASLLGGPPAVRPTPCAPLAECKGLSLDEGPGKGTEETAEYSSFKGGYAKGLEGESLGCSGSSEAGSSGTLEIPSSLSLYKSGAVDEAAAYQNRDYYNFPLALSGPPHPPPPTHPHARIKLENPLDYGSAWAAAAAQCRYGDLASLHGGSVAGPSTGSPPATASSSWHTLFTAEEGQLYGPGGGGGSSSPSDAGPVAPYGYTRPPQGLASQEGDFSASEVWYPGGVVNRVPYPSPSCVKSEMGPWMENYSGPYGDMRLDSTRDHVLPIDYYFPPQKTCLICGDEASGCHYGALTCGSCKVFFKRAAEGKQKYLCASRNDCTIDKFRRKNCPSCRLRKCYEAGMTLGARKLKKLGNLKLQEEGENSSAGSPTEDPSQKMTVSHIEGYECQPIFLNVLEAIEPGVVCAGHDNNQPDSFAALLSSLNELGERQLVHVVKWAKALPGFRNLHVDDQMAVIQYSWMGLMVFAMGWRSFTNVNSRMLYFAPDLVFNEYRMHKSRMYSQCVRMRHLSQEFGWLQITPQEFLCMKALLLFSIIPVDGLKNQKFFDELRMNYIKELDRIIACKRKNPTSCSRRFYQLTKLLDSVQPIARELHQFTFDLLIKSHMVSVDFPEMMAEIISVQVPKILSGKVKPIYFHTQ
Protocol: COS-7 cells were plated in 96-well plates at 20,000 cells per well, in a solution of DMEM/F12 (GIBCO) containing 10% (v/v) charcoal-treated fetal bovine serum (Hyclone) and lacking phenol red. The cells were then incubated overnight at 37° C. in 5% (v/v) humidified CO2.
Test compound solutions were prepared by diluting the test compound in 100% (v/v) DMSO, if necessary.
Next, 1 mL of DMEM/F12 lacking phenol red was pipetted into each of the wells of a 2-mL 96-well assay block. […] The wells were carefully mixed by pipette.
In a 15 mL or 50 mL sterile centrifuge tube, a dilution in DMEM/F12 of the adenovirus AdEasy+rAR at a moi of 1:50 per well was prepared.
The medium was removed from the 96-well plates by inversion and the plates dried very briefly, inverted, on a sterile towel. As soon as possible after medium removal, 40 μL of the diluted test compound was added to each well, in duplicate. […] The plates were then incubated for 48 hours at 37° C. in 5% (v/v) humidified CO2.
The medium was removed from the above incubated plates by inversion and dried. Each well was then washed with 0.35 mL of 1×PBS. The PBS was then removed from the plates by inversion and the plates dried.
To each well was then added 50 μL of 0.5% (v/v) Triton X-100 (Sigma) in 1×PBS and the plates placed on a rotary shaker for 5 min. The contents of each well were then transferred to an OptiPlate-96 (Packard) scintillation plate. To each well was then added 0.2 mL of Microscint-20 (Packard) and the wells counted on a TopCount (Packard).
[…] Counts per well were measured and percents of inhibition determined. […] Counts per well were measured and IC50s determined by linear regression.

[3] = target: T2, androgen receptor (adenovirus AdEasy+rAR in L929 cells) (Rattus norvegicus, UniProt P15207); assay: L929 Androgen Receptor Functional Assay, Adenovirus Transduction; format: cell-based; conditions: for % Activity: L929 agonist testing; for inhibition at 3 µM: L929, L929 antagonist testing with R1881
T2 construct: expressed in transfected cells
T2 sequence (P15207 1-902): T1 sequence (P15207 1-902)
Protocol: L929 cells were plated in 96-well plates at 20,000 cells per well, in DMEM/F12 (GIBCO) containing 10% (v/v) charcoal-treated fetal bovine serum (Hyclone) and lacking phenol red. The plates were then incubated overnight at 37° C. in 5% (v/v) humidified CO2.
Test compound dilutions were prepared in 100% (v/v) DMSO, if necessary. Each dilution was made to 1250× the final desired assay concentration.
First, 2 mL of DMEM/F12 lacking phenol red was pipetted into the wells of a 2-mL 96-well assay block. Next, 4 μL of the 1250× test compound dilutions were pipetted into each well of the assay block. The mixtures within the well were then carefully mixed by pipette.
In a 15 mL or 50 mL sterile centrifuge tube, a 2.5 nM (2.5×) dilution of R1881 (methyl-trienolone) in DMEM/F12 lacking phenol red was prepared.
In a second 15 mL or 50 mL centrifuge tube a solution containing an equal volume of DMEM to the first and an equal volume of 100% (v/v) DMSO to the volume of R1881 used in the first tube was prepared.
In a 15 mL or 50 mL sterile centrifuge tube, a dilution in DMEM/F12 of the adenovirus AdEasy+rAR at an moi of 1:500 per well was prepared.
The medium was removed from the 96-well plates by inversion and dried, inverted, very briefly. As soon as possible after medium removal, 40 μL of the diluted unlabeled test compound was added to each well, in duplicate. To each well designated for antagonist testing was added 40 μL of the 2.5 nM R1881 dilution to the wells for antagonist testing. To each well designated for agonist testing was added 40 μL of the DMSO dilution. Then 20 μL of the diluted adenovirus were added to all wells. The plates were incubated for 48 hours at 37° C. in 5% (v/v) humidified CO2.
To each well was added 100 μL of Steady-Glo luciferase assay substrate (Promega) and the plates were placed on a rotary shaker for 1 min. The plates were then incubated at room temperature in the dark for one hour. The contents of each well were then transferred to a white microtiter plate (Packard) and read on a Luminoskan Ascent (Thermo Lab Systems).
L929 AR percent activity was determined by testing dilutions of the test compound using a concentration of 3000 nM unless otherwise noted. L929 percent inhibition was determined by testing dilutions of the test compound using a concentration of 3000 nM. […] Luciferase activity per well were measured and EC50s and IC50s determined by linear regression.

Structure (SMILES)	active / inactive (inhibition of testosterone-enhanced prostate weight) [1]	% Inhibition [2]	% Activity ([3]; 3000 nM)	inhibition at 3 µM [2]	other results
C[S+]([O-])CCC(C)(O)c1cc2cc([N+](=O)[O-])c(C(F)(F)F)cc2[nH]1 (mixture of isomers) [compound 50]	inactive	7%	2%	–	–
CCSCC(C)(O)c1cc2cc([N+](=O)[O-])c(C(F)(F)F)cc2[nH]1 (racemic) [compound 142]	active	90%	–	–	inhibition at 3 µM ([3]; 3000 nM): 78%; % Activity ([3]; 3000 nM, 3 µM): 0%
CCSCC(C)(O)c1cc2cc(Cl)ccc2n1S(C)(=O)=O (racemic) [compound 154]	–	50%	2%	–	% Inhibition ([3]; L929 antagonist testing with R1881, 3000 nM): 7%
CCSCC(C)(O)c1cc2cc([N+](=O)[O-])c(C(F)(F)F)cc2n1C (racemic) [compound 165]	active	69%	–	–	% Activity ([3]; 3000 nM, 3 µM): 1%
CCSCC(C)(O)c1cc2cc(F)c(Cl)cc2[nH]1 (racemic) [compound 206]	active	−40%	5%	–	–
CCSCC(C)(O)c1cc2cc(C#N)c(C(F)(F)F)cc2[nH]1 (single isomer, unassigned) [Compound #217, 2-(2-Ethylsulfanyl-1-hydroxy-1-methyl-ethyl)-6-trifluoromethyl-1H-indole-5-carbonitrile]	active	38% and 69%	5%	–	inhibition at 3 µM ([3]; 3000 nM): 87%; % Activity ([3]; @ 8000 nM): 0 @ 8000 nM %
CCS(=O)(=O)CC(C)(O)c1cc2cc(C#N)c(C(F)(F)F)cc2[nH]1 (single isomer, unassigned) [Compound #222, 2-(2-Ethanesulfonyl-1-hydroxy-1-methyl-ethyl)-6-trifluoromethyl-1H-indole-5-carbonitrile]	active	–	–	42%	% Activity ([3]; @ 8000 nM): 0 @ 8000 nM %
CSCC(C)(O)c1cc2cc([N+](=O)[O-])c(C(F)(F)F)cc2[nH]1 (single isomer, unassigned) [compound 145]	–	84.7%	–	–	% Activity ([3]; 3000 nM, 3 µM): 1%
CCSCC(C)(O)c1cc2cc([N+](=O)[O-])c(C(F)(F)F)cc2[nH]1 (single isomer, unassigned) [compound 149]	–	63% and 78%	–	–	% Activity ([3]; 3000 nM, 3 µM): 2%
CCSCC(C)(O)c1cc2cc([N+](=O)[O-])c(C(F)(F)F)cc2[nH]1 (single isomer, unassigned) [compound 150]	–	81% and 74%	–	–	% Activity ([3]; @ 8000 nM): 0 @ 8000 nM %
CC(O)(CSc1ccc(O)cc1)c1cc2cc(Cl)c(C(F)(F)F)cc2[nH]1 (stereo not drawn) [compound 120]	–	–	−5%	86%	–
CC(O)(CS(=O)(=O)c1ccc(O)cc1)c1cc2cc(Cl)c(C(F)(F)F)cc2[nH]1 (stereo not drawn) [compound 121]	–	–	−4%	72%	–
CC(O)(CSc1ccc([N+](=O)[O-])cc1)c1cc2cc(Cl)c(C(F)(F)F)cc2[nH]1 (stereo not drawn) [compound 122]	–	–	10%	66%	–
COc1ccc(S(=O)(=O)CC(C)(O)c2cc3cc(Cl)c(C(F)(F)F)cc3n2S(C)(=O)=O)cc1 (stereo not drawn) [compound 128]	–	–	−4%	21%	–
CC(O)(CSc1ccc(C(=O)O)cc1)c1cc2cc(Cl)c(C(F)(F)F)cc2n1S(C)(=O)=O (stereo not drawn) [compound 132]	–	–	−5%	8.7%	–
CC(O)(CSc1ccc(C(=O)O)cc1)c1cc2cc(Cl)c(C(F)(F)F)cc2[nH]1 (stereo not drawn) [compound 133]	–	–	−4%	65%	–
CC(O)(CS(C)(=O)=O)c1cc2cc(Cl)c(C(F)(F)F)cc2n1S(C)(=O)=O (stereo not drawn) [compound 137]	–	–	0%	73%	–
CC(O)(CS(C)(=O)=O)c1cc2cc([N+](=O)[O-])c(C(F)(F)F)cc2[nH]1 (stereo not drawn) [compound 147]	–	6.1%	0%	–	–
CC(O)(CS(C)(=O)=O)c1cc2cc([N+](=O)[O-])c(C(F)(F)F)cc2[nH]1 (stereo not drawn) [compound 148]	–	32%	0%	–	–
CCS(=O)(=O)CC(C)(O)c1cc2cc([N+](=O)[O-])c(C(F)(F)F)cc2[nH]1 (stereo not drawn) [compound 151]	–	55%	–	–	% Activity ([3]; @ 8000 nM): −1 @ 8000 nM %
CCSCC(C)(O)c1cc2cc(C#N)c(Cl)cc2[nH]1 (stereo not drawn) [compound 225]	–	–	1%	82%	–
CCSCC(C)(O)c1[nH]c2cc(C(F)(F)F)c([N+](=O)[O-])cc2c1C#N (stereo not drawn) [compound 242]	inactive	–	–	92%	–
